Experiments:
[1] = tested on: MCF7; assay: In vitro primary anticancer activity was determined in MCF-7 cell line (breast) at the concentration of […]; type: functional, Homo sapiens
[2] = tested on: NCI-H460; assay: In vitro primary anticancer activity was determined in NCI-H460 cell line (Lung) at the concentration of […]; type: functional, Homo sapiens
[3] = tested on: UACC-62; assay: Anticancer activity against one melanoma cancer (UACC-62 cell line); type: functional; details: Homo sapiens, read-out: LC50 (the source's name)
[4] = tested on: NCI-H226; assay: Anticancer activity against one non-small cell lung cancer (NCI-H226 cell line); type: functional; details: Homo sapiens, read-out: LC50 (the source's name)
[5] = tested on: A498; assay: Anticancer activity against one renal cancer (A498 cell line); type: functional; details: Homo sapiens, read-out: LC50 (the source's name)
[6] = tested on: SF-268; assay: In vitro primary anticancer activity was determined in SF-268 cell line (CNS) at the concentration of […]; type: functional, Homo sapiens
[7] = tested on: PC-6; assay: In vitro cytotoxicity was evaluated in PC6 cell line; type: functional, cell-based; details: Homo sapiens

COc1cc2c(cc1OCCCCC(=O)Nc1cc3c4ccccc4ccc3c3ccccc13)N=C[C@@H]1CCCN1C2=O
Growth [1]: 1% | Growth [2]: 0% | CC50 [3]: 4.07 µM | CC50 [4]: 4.5 µM | CC50 [5]: 6.29 µM | Growth [6]: 12%

COc1cc2c(cc1OCCCC(=O)Nc1cc3c4ccccc4ccc3c3ccccc13)N=C[C@@H]1CCCN1C2=O
Growth [1]: 56% | Growth [2]: 105% | Growth [6]: 121%

COc1cc2c(cc1O)N=C[C@@H]1CCCN1C2=O
IC50 [7]: 0.33 µM
